{"source": "patent US20220378773A1", "about": "“METHODS FOR TREATING LEUKEMIA AND USE OF A LEUKEMIC STEM CELL SIGNATURE TO PREDICT CLINICAL SENSITIVITY TO THERAPIES” (CELGENE CORPORATION, priority 2019, published 2022)", "key": {"[1]": {"tested_on": "colony forming leukemia progenitors", "assay": "Acute myeloid leukemia colony forming unit (AML-CFU) assay", "format": "cell-based, human", "description": "For the AML-colony forming unit (CFU) assay, 0.9% methylcellulose semi-solid culture was used, containing 15% fetal calf serum (FCS), 15% pretested human plasma, 50 μM β mercaptoethanol, and cytokines at concentrations of 100 ng/mL stem cell factor, 100 ng/mL Flt-3 ligand, 20 ng/mL IL-6, 20 ng/mL GM-CSF, 20 ng/mL IL-3, and 3 U/mL of erythropoietin (Amgen, USA).\nCell Culture: Acute myeloid leukemia cells were plated in 0.9% methylcellulose containing 15% FCS, 15% pretested human plasma, 50 μM β-mercaptoethanol, and cytokines at concentrations of 100 ng/mL stem cell factor, 100 ng/mL Flt-3 ligand, 20 ng/mL IL-6, 20 ng/mL GM-CSF, 20 ng/mL IL-3 and 3 U/mL of erythropoietin (Amgen, USA). Acute myeloid leukemia cells were cultured with DMSO or Compound D (prepared as described below) during suspension and CFU assays.\nAssay Procedure: After the AML cultures were incubated with DMSO or Compound D for 12 to 14 days at 37° C., plates were assigned scores for the presence of AML-CFU (CFU defined as >50 cells).\nColony assays were performed in semisolid culture supplemented with growth factors, in the presence of Compound D, or DMSO for control. Colonies were counted at Day 14."}, "[2]": {"assay": "Tolerability and body weight of AML xenograft mice", "format": "in vivo, NOD/SCID mice", "description": "Treatment and Assay Procedure: At Day 21 post AML transplantation, mice were randomly grouped and dosed with either Compound D at 2.5 mg/kg or vehicle (5% N-methyl-2-pyrrolidone [NMP]/45% polyethylene glycol [PEG] 400/50% saline), intraperitoneally twice daily in a dose volume of 50 μL for 4 weeks. All animals were euthanized at scheduled termination (1 day after the last treatment) and bone marrow was collected from the right femur (injected bone marrow) and the left femur and left and right tibia (non-injected bone marrow). Cells isolated from injected or non-injected bone marrow were analyzed by flow cytometry to assess AML engraftment, and were viably frozen for future secondary engraftment analysis.\nBased on the pilot data (FIG. 4) in which one of the 2 samples responded to Compound D dosing at 2.5 mg/kg BID for 2 weeks, the duration of dosing was extended to 4 weeks to determine if the mice could tolerate longer Compound D dosing. Mice transplanted with 3 different AML samples were closely monitored for clinical conditions during treatment."}}, "note": "Several values for one entry are separate records, joined by “and”; a condition that tells them apart may be missing. Equal values may be shown once."}
{"smiles": "O=C1CCC(N2Cc3cc(CNC(=O)C(F)(F)c4ccc(Cl)cc4)ccc3C2=O)C(=O)N1", "note": "(centres unmarked) [Compound D, 2-(4-chlorophenyl)-N-((2-(2,6-dioxopiperidin-3-yl)-1-oxoisoindolin-5-yl)methyl)-2,2-difluoroacetamide]", "values": [{"measurement": "colony formation, high vs low LSC17 score samples", "setting": "[1]; 3 high and 3 low LSC17 samples", "result": "reduced colony formation of the samples with high LSC17 scores more than the samples with low LSC17 samples"}, {"measurement": "colony formation", "setting": "[1]; 7 samples that formed colonies, increasing concentration", "result": "all 7 samples had reduced colony formation"}, {"measurement": "colony forming leukemia progenitors", "setting": "[1]; Section 6.3 samples", "result": "inhibited colony forming leukemia progenitors"}, {"measurement": "tolerability", "setting": "[2]; 4 weeks of treatment, mice with different primary AML samples", "result": "well tolerated"}, {"measurement": "Body weight, Week 1, average (mean)", "setting": "[2]; group mean", "result": "Avg = 21.8"}, {"measurement": "Body weight, Week 2, average (mean)", "setting": "[2]; group mean", "result": "Avg = 21.7"}, {"measurement": "Body weight, Week 3, average (mean)", "setting": "[2]; group mean", "result": "Avg = 21.6"}, {"measurement": "Body weight, Week 1", "setting": "[2]; individual mice", "result": "21 g (5×) and 23 g (2×) and 20 g (2×) and 22 g (4×) and 24 g (2×)"}, {"measurement": "Body weight, Week 2", "setting": "[2]; individual mice", "result": "22 g (3×) and 20 g (3×) and 24 g (2×) and 23 g (3×) and 19 g and 21 g (3×)"}, {"measurement": "Body weight, Week 3", "setting": "[2]; individual mice", "result": "23 g and 21 g (4×) and 19 g and 22 g (5×) and 24 g (2×) and 20 g (2×)"}, {"measurement": "paralysis / death", "setting": "[2]; mouse transplanted with Patient Sample 120860, last day of 4-week treatment", "result": "Only one Compound D-treated mouse was found paralyzed"}]}
